According to the NIST ThermoML archive (doi:10.1021/je100104v):

How the values were obtained:
[1] = xn = mol fraction of the nth substance listed; settings: Liquid; for electrical conductivity / viscosity: 101.3 kPa; for electrical conductivity: Eutech Cyberscan Con 11; for mass density: 101 kPa
[2] = refractive index (Na D-line) (dimensionless); xn = mol fraction of the nth substance listed; settings: 101.3 kPa, Liquid, Standard Abbe refractometry

NC(=O)C(F)(F)F [2,2,2-trifluoroacetamide] + C[P+](c1ccccc1)(c1ccccc1)c1ccccc1.[Br-]
Settings | electrical conductivity, [1] [S/m] | mass density, [1] [kg/m3] | refractive index, [2] | viscosity, [1] [mPa·s]
278.1 K, x2 = 0.111 | 0.0134 | – | – | 657.7
288.15 K, x1 = 0.111 | – | – | 1.4913 | –
288.15 K, x2 = 0.111 | 0.0351 | – | – | 405.9
298.15 K, x1 = 0.111 | – | – | 1.4849 | –
298.15 K, x2 = 0.111 | 0.0848 | 1394.7 | – | 136.5
308.15 K, x1 = 0.111 | – | – | 1.4824 | –
308.15 K, x2 = 0.111 | 0.182 | 1383.7 | – | 71.3
318.15 K, x1 = 0.111 | – | – | 1.4782 | –
318.15 K, x2 = 0.111 | 0.282 | 1372.7 | – | 39
328.15 K, x1 = 0.111 | – | – | 1.4745 | –
328.15 K, x2 = 0.111 | 0.349 | 1361.6 | – | 24.1
338.15 K, x1 = 0.111 | – | – | 1.4737 | –
338.15 K, x2 = 0.111 | 0.418 | 1350.4 | – | 16.6
348.15 K, x2 = 0.111 | 0.482 | 1339.3 | – | 11.1
358.15 K, x2 = 0.111 | 0.55 | 1328.2 | – | 0.9
368.15 K, x2 = 0.111 | 0.609 | – | – | –

[Cl-].c1ccc(C[P+](c2ccccc2)(c2ccccc2)c2ccccc2)cc1 [benzyltriphenylphosphonium chloride] + OCC(O)CO
Settings | electrical conductivity, [1] [S/m] | refractive index, [2] | viscosity, [1] [mPa·s]
328.15 K, x1 = 0.167 | – | – | 553.7
328.15 K, x2 = 0.167 | – | 1.5502 | –
338.15 K, x1 = 0.167 | 0.00187 | – | 339.3
338.15 K, x2 = 0.167 | – | 1.5168 | –
348.15 K, x1 = 0.167 | 0.00167 | – | 118.6
358.15 K, x1 = 0.167 | 0.00151 | – | 75.5
368.15 K, x1 = 0.167 | 0.00139 | – | 38.7

[Cl-].c1ccc(C[P+](c2ccccc2)(c2ccccc2)c2ccccc2)cc1 [benzyltriphenylphosphonium chloride] + OCCO
Settings | electrical conductivity, [1] [S/m] | refractive index, [2] | viscosity, [1] [mPa·s]
328.15 K, x1 = 0.25 | 0.0485 | – | 201.9
328.15 K, x2 = 0.25 | – | 1.5258 | –
338.15 K, x1 = 0.25 | 0.0199 | – | 85.5
338.15 K, x2 = 0.25 | – | 1.5309 | –
348.15 K, x1 = 0.25 | 0.00164 | – | 59.3
358.15 K, x1 = 0.25 | 0.00148 | – | 50.5
368.15 K, x1 = 0.25 | 0.00136 | – | 35.9

C[P+](c1ccccc1)(c1ccccc1)c1ccccc1.[Br-] [methyltriphenylphosphonium bromide] + OCC(O)CO
Settings | electrical conductivity [S/m] | mass density [kg/m3] | refractive index | viscosity [mPa·s]
[1], 278.1 K, x1 = 0.3636 | 0.00375 | – | – | –
[1], 288.15 K, x1 = 0.3636 | 0.00826 | – | – | –
[1], 298.15 K, x1 = 0.3636 | 0.0165 | 1289.9 | – | –
[1], 308.15 K, x1 = 0.3636 | 0.0315 | 1283 | – | –
[1], 318.15 K, x1 = 0.3636 | 0.0555 | 1275.9 | – | 887.1
[1], 328.15 K, x1 = 0.3636 | 0.0901 | 1268.8 | – | 414.9
[1], 338.15 K, x1 = 0.3636 | 0.127 | 1261.9 | – | 205.7
[1], 348.15 K, x1 = 0.3636 | 0.182 | 1255 | – | 104.8
[1], 358.15 K, x1 = 0.3636 | 0.242 | 1248 | – | 77.4
[1], 368.15 K, x1 = 0.3636 | 0.315 | – | – | 36.9
[2], 288.15 K, x2 = 0.3636 | – | – | 1.5708 | –
[2], 298.15 K, x2 = 0.3636 | – | – | 1.5666 | –
[2], 308.15 K, x2 = 0.3636 | – | – | 1.5656 | –
[2], 318.15 K, x2 = 0.3636 | – | – | 1.5627 | –
[2], 328.15 K, x2 = 0.3636 | – | – | 1.5607 | –
[2], 338.15 K, x2 = 0.3636 | – | – | 1.5578 | –

C[P+](c1ccccc1)(c1ccccc1)c1ccccc1.[Br-] [methyltriphenylphosphonium bromide] + OCCO
Settings | electrical conductivity, [1] [S/m] | mass density, [1] [kg/m3] | refractive index, [2] | viscosity, [1] [mPa·s]
278.1 K, x1 = 0.2 | 0.0371 | – | – | 345
288.15 K, x1 = 0.2 | 0.055 | – | – | 186.1
288.15 K, x2 = 0.2 | – | – | 1.5622 | –
298.15 K, x1 = 0.2 | 0.0788 | 1232.6 | – | 109.8
308.15 K, x1 = 0.2 | 0.109 | 1225.6 | – | 68.6
308.15 K, x2 = 0.2 | – | – | 1.5542 | –
318.15 K, x1 = 0.2 | 0.144 | 1218.5 | – | 39.5
328.15 K, x1 = 0.2 | 0.188 | 1211.4 | – | 19.7
328.15 K, x2 = 0.2 | – | – | 1.5483 | –
338.15 K, x1 = 0.2 | 0.234 | 1204.3 | – | 5.4
338.15 K, x2 = 0.2 | – | – | 1.5446 | –
348.15 K, x1 = 0.2 | 0.285 | 1197.2 | – | 1.8
358.15 K, x1 = 0.2 | 0.338 | 1190 | – | –
368.15 K, x1 = 0.2 | 0.382 | – | – | –
